US7547548B2, “Method for producing direct in vitro flowering and viable seed from cotyledon, radicle, and leaf explants, and plants produced therefrom” (University of Toledo, priority 2004, dated 2009)

Key:
[1] = tested on: cotyledonary explant; assay: Direct flower bud induction on cotyledon explants on MSB5 medium with growth regulators; assay type: cell-based, soybean
Description: Preferably before germination, the seeds are washed in running tap water with a drop of soap for 15 mins and sterilized with 70% ethyl alcohol for 1 min followed by a 10 minute treatment with 0.1% mercuric chloride and washed three times for 5 min intervals with sterile distilled water. Six seeds are germinated in each petriplate with MSB5 medium After germination on a MSB5 for a period of time, such as 3 days in the dark at 24±2° C., both the cotyledons are split and the radicle and embryo are removed. The isolated cotyledons from the seed are plated on cotyledon-flowering medium (which is another embodiment of the invention and is described in detail below). The cotyledon-flowering medium preferably comprises a substituted phenylurea cytokinin analog, such as TDZ and a cytokinin such as BAP.
If desired, the cotyledon may be transformed at this time with any suitable technique known in the art. Preferably the abaxial side of a cotyledon is placed in contact with a cotyledon-flowering medium. Cultures are incubated at 24±2° C. under a 16/8-hour […] photoperiod provided by cool-white fluorescent lights at a quantum flux density of 30 μmol s^−1m^−2.
Following a passage of time, typically within 3 weeks, flower bud initiation occurs on a cotyledon having been placed on a cotyledon-flowering medium. After about 3 weeks, cotyledons are transferred to MSB5 medium. The flower bud continues to grow on MSB5 medium to develop and produce viable seeds. During this time, cultures are incubated with necessary light-dark photoperiodic conditions to promote growth and to mimic natural growing conditions. Additionally, over time it may be necessary to subculture the explants with fresh MSB5 medium. See example 1 and FIGS, 1a-1d for direct viable-seed producing flower bud initiation on a soybean cotyledon.
Healthy soybean seeds are hand picked and washed with a few drops of soap (Linquinox, Fischer scientific, Pittsburgh, Pa.) for 10 minutes in running tap water. The seeds are then sterilized in 70% ethyl alcohol for 1 min and treated with 0.1% (w/v) mercuric chloride for 10 min. Sterilized seeds are again washed for three times at five minute intervals with sterilized distilled water, and plated six seed on each petri plate containing 20 ml of MSB5 medium. Three-day-old aseptic seedlings are used as the source material for explant preparation. Six isolated cotyledons are plated on each culture plate in such a way that the abaxial side in contact with the medium. MSB5 medium supplemented with different concentrations of TDZ (0.1, 0.5, 1.0, 2.0 and 5.0 mg/L) either alone, or in combination, with BAP (1.0-4.0 mg/L) are tested for flower induction. The media is augmented with 3% (w/v) sucrose and solidified with 0.56% agar (Phytotech Labs). The pH of the medium is adjusted to 5.8 with 0.1M NaOH or 0.1M HCl before autoclaving at 1.4 kg cm^−2 for 20 min at 121° C. The cultures are incubated in light-dark (16-8 hrs) photoperiodic conditions of cool-white-fluorescent light providing a quantum flux density of […] at 25±2° C. Explants with or without multiple flower buds are subcultured regularly at 20 days interval to fresh medium. Within 15 days of culture initiation, the bulging of cotyledons and induction of deep greenish unorganized structures from the proximal end is noticed.

[2] = tested on: Leaf segments from a petunia; assay: In vitro flowering from leaf explant of petunia; assay type: cell-based; settings: MS basal medium, TDZ 0.1, 0.5, 1.0, 2.0 and 5.0 mg/L alone; 4 weeks
Description: Leaf segments from a petunia were sterilized using the sterilization procedures described above and placed on MS basal medium supplemented with different concentrations of TDZ (0.1, 0.5, 1.0, 2.0 and 5.0 mg/L) either alone or in combination with BAP (3.0 mg/L) or on a MS basal medium with no hormones. […] A large number of flowers were induced on MS basal medium. FIG. 7 is a photograph showing in vitro flowering in a petunia.

[3] = tested on: cotyledon; assay: Shoot, fertile flower and viable seed production from in vitro developed shoots from cotyledon; assay type: cell-based, soybean; settings: BAP 3.0 mg/L without TDZ
Description: In this method, the isolated cotyledons from the germinated seed are plated on a cotyledon-shoot-flowering medium (which is another embodiment of the invention and is described below). A cotyledon-shoot flowering medium preferably comprises a cytokinin or mixtures thereof, such as BAP or combinations of cytokinins and a substituted phenylurea cytokinin analog such as TDZ or mixtures thereof. If desired, the cotyledon may be transformed at this time with any suitable technique known in the art. Preferably the abaxial side of the cotyledon is placed in contact with a cotyledon-shoot-flowering medium. Cultures are incubated at 24×2° C. under a 16/8-hour dark photoperiod provided by cool-white fluorescent lights at a quantum flux density of 30 μmol s^−1m^−2. Following a passage of time, typically, within four to six weeks, shoot initiation occurs on a cotyledon having been placed on a cotyledon-shoot-flowering medium. The shoot continues to grow and develop a flower bud within two to four weeks after shoot initiation. The explant is maintained on a cotyledon-shoot flowering medium for about 15 days and then transferred to MSB5 medium. Healthy soybean seeds are hand picked and washed with a few drops of soap (Linquinox, Fischer scientific, Pittsburgh, Pa.) for 10 minutes in running tap water. […]

Row | Compound | flower induction and shoot induction ([1]; TDZ 5.0 mg/L) | flower production on cotyledonary explants ([1]; TDZ 1.0-2.0 mg/L without BAP) | number and frequency of flowers induced ([1]; TDZ below 1.0 mg/L) | appearance of induced flowers ([1]; medium containing only 1.0 to 2.0 mg/L TDZ) | flower bud induction [2] | frequency of shoots, fertile flowers and viable seeds [3] | developmental outcome produced by cotyledon explants ([1]; 3.0 mg/1 BAP)
1 | O=C(Nc1ccccc1)Nc1cnns1 [TDZ, 1-phenyl-3-(1,2,3-thiadiazol-5-yl)urea] | neither flower induction nor shoot induction was noticed | produces flowers on cotyledonary explants | fewer number of flowers and less frequently | short, vitrified and abnormal | Multiple flower buds were induced |  | 
2 | c1ccc(CNc2ncnc3nc[nH]c23)cc1 [BAP, 6-benzylamino purine] |  |  |  |  |  | high frequency of shoots with low frequency of fertile flowers and viable seeds | only shoots
